Several values for one entry are separate records, joined by “and”; a condition that tells them apart may be missing. Equal values may be shown once. Read-outs that look alike come from different tables or passages of the source.
How the values were obtained:
[1] = biological target: T1, SMARCA2^BD (Homo sapiens, UniProt P51531); assay: SPR binding to immobilised SMARCA2 bromodomain; settings: SPR, read-out: SMARCA2 KD
T1 construct: P51531-2, residues 1373-1493 with additional N-terminal SM residues; GST (TEV site) (N, cleaved yes); made in house; host or cells: Escherichia coli BL21(DE3)
T1 sequence (P51531 1373-1493 isoform P51531-2): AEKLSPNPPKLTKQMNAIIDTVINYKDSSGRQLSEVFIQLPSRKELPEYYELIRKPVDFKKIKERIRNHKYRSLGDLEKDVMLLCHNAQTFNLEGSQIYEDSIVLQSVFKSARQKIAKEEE
Description: (§1) SMARCA4^BD was provided by the Structural Genomics Consortium (SGC), Toronto[32] and SMARCA2^BD and PRM1^BD5 were synthesised by GeneArt then subcloned into pDEST15 vectors (Invitrogen). The VCB complex was expressed and purified as described previously, with the modification that 0.3 mM IPTG was used for induction of expression. […] Both were stored in 20 mM 4-(2-hydroxyethyl)−1-piperazineethanesulfonic acid (HEPES), 150 mM sodium chloride and 1 mM tris(2-carboxyethyl)phosphine (TCEP) pH 7.5. SMARCA2^BD, SMARCA4^BD and PBRM1^BD5 were expressed in Escherichia coli BL21(DE3) as N-terminal GST fusion proteins with a TEV protease cleavage site. Expression and purification of these proteins has been described previously[32],[33]. Starter cultures were grown overnight at 37 °C in 10 mL of Luria-Bertani (LB) medium with ampicillin (100 μg/mL). The starter cultures were diluted (1:100) in Terrific Broth (TB) medium with ampicillin (100 μg/mL) and grown in a shaking incubator at 37 °C to an optical density (OD600) ~1 before the temperature was lowered for induction (to 23 °C for SMARCA2^BD or 18 °C for SMARCA4^BD and PRRM1^BD5). […] Cells were harvested by centrifugation and stored at −80 °C prior to purification. […] The Lysis buffers were as follows: for SMARCA2^BD: 50 mM HEPES, 500 mM sodium chloride, 5% glycerol, 5 mM dithiothreitol (DTT); for SMARCA4^BD: 25 mM HEPES, 0.3 M sodium chloride, 5% glycerol, 10 mM DTT, pH 7.5; for PBRM1^BD5: 25 mM HEPES, 300 mM sodium chloride, 5% glycerol, 10 mM DTT, pH 7.8; in each case supplemented with complete protease inhibitors (Roche). Affinity purification was performed using Glutathione Sepharose 4B (GE Healthcare) in batch mode or on-column. […] For SMARCA2^BD, prior to TEV protease cleavage the eluted GST-tagged BD was first dialysed into desalting buffer (20 mM HEPES, 250 mM sodium chloride, pH 7.0 + 0.5% glycerol). Where TEV cleavage was performed in solution, a second affinity (GST-trap) column purification step was carried out to remove the GST-tag and uncleaved GST-tagged protein. Proteins were further purified by SEC (HiLoad Superdex-75, 16/600) (GE Healthcare) and stored in Storage buffer (for SMARCA2^BD: 20 mM HEPES, 150 mM sodium chloride, pH 7.5; for SMARCA4^BD: 10 mM HEPES, 0.5 M NaCl, 5% glycerol, pH 7.5; for PBRM1^BD5: 20 mM HEPES, 300 mM NaCl, 5 mM DTT, pH 7.8). For AlphaScreen assays, eluted GST-tagged BDs were purified directly by SEC in the respective storage buffers without TEV cleavage. All chromatography purification steps were performed either at room temperature or 4 °C using an ÄKTA FPLC purification system (GE Healthcare) or a plastic Econo-Pac column (Bio-Rad).
(§2) SPR data were acquired on Biacore 8K or T200 instruments (Cytiva). Target proteins were immobilised at 25 °C on CM5 chips by amine coupling (EDC/NHS, Cytiva) in HBS-P+ running buffer (pH 7.4), containing 2 mM TCEP. […] The reference surface was subsequently deactivated using 1 M ethanolamine. […] Biotinylated VCB was prepared as previously described[27]: in brief, the complex was mixed 1:1 with EZ-Link NHS–PEG4–biotin (Thermo Scientific) and incubated at room temperature for 1 h. Unreacted NHS-biotin was removed using a PD-10 desalting column (Cytiva) into 20 mM HEPES, pH 7.5, 150 mM sodium chloride and 1 mM DTT. The reference surface was generated by deactivating the EDC/NHS-treated surface with 1 M ethanolamine. All interaction experiments were done at 6 °C in running buffer (20 mM TRIS, pH 8.3, 150 mM potassium chloride, 2 mM magnesium chloride, 2 mM TCEP, 0.005% TWEEN 20, 1% dimethyl sulfoxide). For ternary complex measurements, a sensor chip surface with VCB immobilised was used (preparation as described above). Experiments were run in dual-inject mode with 10 µM SMARCA present during the injection and dissociation phase. Sensorgrams from reference surfaces and blank injections were subtracted from the raw data prior to data analysis using Biacore Insight software.

[2] = biological target: T2, VCB complex (Homo sapiens, UniProt P40337); assay: SPR binary binding to immobilised VCB complex
T2 construct: His6 (TEV site) (N, cleaved yes); made in house
T2 sequence (P40337 54-213): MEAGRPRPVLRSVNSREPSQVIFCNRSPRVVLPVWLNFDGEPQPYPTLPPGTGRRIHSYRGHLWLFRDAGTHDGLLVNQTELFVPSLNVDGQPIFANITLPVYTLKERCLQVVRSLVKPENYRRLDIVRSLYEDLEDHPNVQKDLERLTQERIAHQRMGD
T2 sequence (Q15369 17-112 partner limits assumed): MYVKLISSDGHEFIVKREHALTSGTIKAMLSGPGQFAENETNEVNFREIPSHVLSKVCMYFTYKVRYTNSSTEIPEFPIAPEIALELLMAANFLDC
T2 sequence (Q15370 1-104 partner limits assumed): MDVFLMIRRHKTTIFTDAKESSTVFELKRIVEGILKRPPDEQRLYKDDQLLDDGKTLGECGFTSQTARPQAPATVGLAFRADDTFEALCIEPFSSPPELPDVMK
Description: as §1, §2

[3] = test system: VCB: PROTAC: SMARCA2^BD ternary complex; assay: TR-FRET ternary complex affinity and cooperativity, SMARCA2; format: binding, human; settings: ratio TR-FRET EC50 / TR-FRET EC50 +VCB measured in the same run, SMARCA2BD
[4] = test system: PBRM1BD5; assay: TR-FRET ternary complex affinity and cooperativity, PBRM1; format: binding; settings: ratio TR-FRET EC50 / TR-FRET EC50 +VCB measured in the same run, PBRM1BD5
[5] = biological target: T3, PBRM1BD5 (Homo sapiens, UniProt P40337+Q86U86); assay: as above; format: binding; settings: TR-FRET competition for PBRM1BD5, + VCB; mean ± SD; read-out: TR-FRET Ternary PBRM1BD EC50 (PROTAC + VCB)
T3 construct: GST (TEV site) (N); His6 (TEV site) (N, cleaved yes); made in house; host or cells: PBRM1^BD5: Escherichia coli BL21(DE3)
T3 sequence (Q86U86 645-766): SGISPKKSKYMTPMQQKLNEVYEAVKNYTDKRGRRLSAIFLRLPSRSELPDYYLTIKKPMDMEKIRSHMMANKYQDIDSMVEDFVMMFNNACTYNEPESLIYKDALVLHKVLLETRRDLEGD
T3 sequence (P40337 54-213): as the sequence (P40337 54-213) above
T3 sequence (Q15369 17-112 partner): as the sequence (Q15369 17-112 partner limits assumed) above
T3 sequence (Q15370 1-104 partner): as the sequence (Q15370 1-104 partner limits assumed) above

[6] = binary binding to VCB, mean ± SD

SMILES | Kd ([1]; SMARCA2BD, mean ± SD) | Kd ([1]; individual replicates) | Kd [2, 6] | cooperativity α (SMARCA2BD) [3] | cooperativity α (PBRM1BD) [4] | EC50 [5] | Kd ([2]; binary, individual replicates)
Cc1ncsc1-c1ccc(C(CCC(C)CCN2CCC(c3ccc4c(c3)n(C3CCCC3)c3nc(=O)c5c(Br)cccc5n43)CC2)NC(=O)C2CC(O)CN2C(=O)C(NC(=O)C2(F)CC2)C(C)(C)C)cc1 (stereo not drawn) [ACBI2] | 208 ± 39 nM | 250 nM and 202 nM and 173 nM | 28 ± 35 nM | 4.6 ± 2.2 | 13.8 ± 1.5 | 5 ± 1 nM | –
Cc1ncsc1-c1ccc(CNC(=O)[C@@H]2C[C@@H](O)CN2C(=O)[C@@H](NC(=O)C2(F)CC2)C(C)(C)C)c(OCCOCCOCCOCCN2CCC(c3ccc4c(c3)n(C3CCCC3)c3nc(=O)c5c(Br)cccc5n43)CC2)c1 [compound 22] | 1100 ± 433 nM | 1570 nM and 715 nM and 1020 nM | 39 ± 16 nM | 2.8 ±0.8 | 2.6 ± 0.1 | 38 ± 5 nM | 31.8 nM and 62.9 nM and 29.3 nM and 33 nM
Cc1ncsc1-c1ccc(CNC(=O)[C@@H]2C[C@@H](O)CN2C(=O)[C@@H](NC(=O)C2(F)CC2)C(C)(C)C)c(OCCCCN2CCC(c3ccc4c(c3)n(C3CCCC3)c3nc(=O)c5c(Br)cccc5n43)CC2)c1 [compound 23] | 94 ± 11 nM | 102 nM and 81.3 nM and 98.3 nM | 16 ± 8 nM | 0.7 ± 0.3 | 2.0 ± 0.4 | 21 ± 3 nM | 11.5 nM and 28.1 nM and 12.3 nM and 10.9 nM
Cc1ncsc1-c1ccc([C@H](COCCCN2CCC(c3ccc4c(c3)n(C3CCCC3)c3nc(=O)c5c(Br)cccc5n43)CC2)NC(=O)[C@@H]2C[C@@H](O)CN2C(=O)[C@@H](NC(=O)C2(F)CC2)C(C)(C)C)cc1 [compound 27] | 217 ± 30 nM | 244 nM and 185 nM and 221 nM | 12 ± 9 nM | 3.3 ± 0.8 | 12.2 ± 2.8 | 3 ± 0.5 nM | 8.51 nM and 25.4 nM and 6.56 nM and 9 nM
